These compounds were tested on wild-type (WT) Mtb.
Format: cell-based, Mycobacterium tuberculosis

SMILES | IC50 [µM]
CCCCCCC#Cc1cncc(-c2nnc(SCc3ccc([N+](=O)[O-])o3)n2C2CC2)c1 [drawing 80] | < 0.78
CCCC#Cc1cncc(-c2nnc(SCc3ccc(Cl)cc3)n2C)c1 | 15
CCCCCCC#Cc1cncc(-c2nnc(SCc3ccc(C)cc3)n2C)c1 [drawing 55 R = Me] | 6.1
C#Cc1cncc(-c2nnc(SCc3ccc(Cl)cc3)n2C)c1 [drawing 87] | 86
CCCCCCC#Cc1cncc(-c2nnc(SCc3ccc(Cl)cc3)n2CCCC)c1 | > 200
CCCCCCC#Cc1cncc(-c2nnc(SCc3ccc(Br)cc3)n2C)c1 [drawing 55 R = Br] | 4.6
CCCCCCC#Cc1cncc(-c2nnc(SCc3ccc([N+](=O)[O-])cc3)n2C)c1 [drawing 55 R = NO2] | 5.9
CCCCCCC#Cc1cncc(-c2nnc(Sc3ccc(Cl)cc3)n2C)c1 | 13
CCCCCCC#Cc1cncc(-c2nnc(SCc3ccc(Cl)cc3)n2C2CC2)c1 [drawing 77] | 3.3
CCCCCCC#Cc1cncc(-c2nnc(SCc3ccc(Cl)cc3)n2CC)c1 | 4.7
CCCCCCC#Cc1cncc(-c2nnc(SCc3cc(F)cc(F)c3)n2C)c1 [drawing 69] | 8
CCCCCCC#Cc1cncc(-c2nnc(SCc3ccc(Cl)cc3)n2Cc2ccccc2)c1 | > 200
CCCCCCC#Cc1cncc(-c2nnc(SCc3ccc(Cl)c(Cl)c3)n2C)c1 [drawing 67] | 6.8
CCCCCCC#Cc1cncc(-c2nnc(SCc3ccc(F)c([N+](=O)[O-])c3)n2C)c1 | 44
CCCCCCC#Cc1cncc(-c2nnc(SCCc3ccc(Cl)cc3)n2C)c1 | 8.2
CCCCCCC#Cc1cncc(-c2nnc(SCc3cc([N+](=O)[O-])cc(C(F)(F)F)c3)n2C)c1 | > 200
CCCCCCC#Cc1cncc(-c2nnc(SCc3ccc(F)cc3)n2C)c1 [drawing 55 R = F] | 6.9
CCCCCCC#Cc1cncc(-c2nnc(SCc3ccc(Cl)c(F)c3)n2C)c1 [drawing 52] | 4.1
CCCCCCC#Cc1cncc(-c2nnc(SCc3ccc(Cl)cc3[N+](=O)[O-])n2C)c1 | > 200
CCCCCCC#Cc1cncc(-c2nnc(SCc3ccc(Cl)cc3)n2-c2ccccc2)c1 | > 200
CCCCCCC#Cc1cncc(-c2nnc(SCc3ccc4nonc4c3)n2C)c1 | > 200
